Data: publication PMC10121968, “Fosgonimeton, a Novel Positive Modulator of the HGF/MET System, Promotes Neurotrophic and Procognitive Effects in Models of Dementia” (Neurotherapeutics, 2022)
Non-standard residues stand in square brackets, D forms with d. Residues, ends and D or L forms follow the SMILES beside them. *: point of attachment. Hexanoyl = CCCCCC(=O)*; Ahx = NCCCCCC(=O)O

Assays:
[1] = Fosgonimeton CNS distribution in rats; assay type: in vivo, rat; details: 12 mg/kg fosgonimeton SC
Protocol: Three male Sprague Dawley rats per time point were given 12 mg/kg fosgonimeton via SC injection. At 0.16, 0.5, and 1 h after dosing, animals were humanely killed and perfused with chilled saline. Brains were collected and dissected into the following brain regions: whole brain, striatum, olfactory bulb, hippocampus, cerebellum, cerebral cortex, and brainstem. Brain regions were homogenized and the exposures of fosgonimeton and fosgo-AM were determined by LC/MS/MS.

[2] = system: AKT (Ser473); experiment: Phospho-AKT HTRF assay in HEK293 cells; assay type: cell-based, human; details: HEK293, subthreshold HGF 10 ng/mL + fosgo-AM 0.1 µM, vs HGF alone
Excerpt: To determine phosphoactivation status of the intracellular signaling molecules ERK (Thr202/Tyr204) or AKT (Ser473), we used homogenous time-resolved fluorescence (HTRF) kits to assess phosphorylation status based on the energy transfer between donor and acceptor phospho-ERK (pERK) or phospho-AKT (pAKT) antibodies. HTRF kit processing for pERK (Phospho-ERK [Thr202/Tyr204] cellular Advanced kit, #64AERPEG, Cisbio, Codolet, France) and pAKT (Phospho-AKT [Ser473] cellular kit, #64AKSPEG, Cisbio, Codolet, France) were carried out per manufacturer instructions. In brief, HEK293 cells were grown at 37 °C, 5% CO2 in DMEM + 10% FBS until approximately 80% confluent. Cells were seeded in polystyrene-treated 96-well cell culture plates at approximately 50,000 cells/well and cultured overnight in 50 µL serum-free growth media. […] Fluorescence emission at 2 different wavelengths (665 nm and 620 nm) were measured on an Envision plate reader (PerkinElmer, Waltham, Massachusetts), and the HTRF ratio of the acceptor and donor emission signals for each well was calculated as follows: HTRF ratio = (665 nm/620 nm) × 10,000. […] Data were assessed for normality (Shapiro–Wilk) and homoscedasticity (Brown-Forsythe). Statistical significance was determined by one-way analysis of variance (ANOVA) with Tukey’s multiple comparison post-test. […]

time to maximum concentration (Tmax) in brain regions ([1]; all regions): 10 min
Cmax, ng/g ± SEM ([1]; brainstem): 58.3 ± 11.3 ng/g
Tmax ([1]; brainstem): 9.6 min
Cmax, ng/g ± SEM ([1]; cerebellum): 23.8 ± 4.1 ng/g
Tmax ([1]; cerebellum): 9.6 min
Cmax, ng/g ± SEM ([1]; cerebral cortex): 36.5 ± 12.0 ng/g
Tmax ([1]; cerebral cortex): 9.6 min
Cmax, ng/g ± SEM ([1]; hippocampus): 49.8 ± 30.5 ng/g
Tmax ([1]; hippocampus): 9.6 min
Cmax, ng/g ± SEM ([1]; olfactory bulb): 43.7 ± 7.3 ng/g
Tmax ([1]; olfactory bulb): 9.6 min
Cmax, ng/g ± SEM ([1]; striatum): 24.1 ± 12.8 ng/g
Tmax ([1]; striatum): 9.6 min
Cmax, ng/g ± SEM ([1]; whole brain): 31.9 ± 23.8 ng/g
Tmax ([1]; whole brain): 9.6 min
SMILES: CCCCCC(=O)N[C@@H](Cc1ccc(O)cc1)C(=O)N[C@H](C(=O)NCCCCCC(N)=O)[C@@H](C)CC [fosgo-AM] (Hexanoyl-Tyr-Ile-[Ahx]-NH2)
pAKT levels [2]: significant increase
